pIC50: −log10 of the molar value.
Legend:
Rattus norvegicus [1] = assay: Ulcerogenic effect in Wistar rat assessed as gastric ulcer area at 11.48 mg/kg, po administered for 7 days by microscopy; format: toxicity, organism-based, Stomach; design: dose 11.48 mg/kg, route oral; conditions: in vivo, 168 h
Mus musculus [2] = assay: Analgesic activity in BALB/c mouse assessed as inhibition of acetic acid-induced writhing response for 15 mins at 22.96 mg/kg, po; format: functional; conditions: 0.25 h
[3] = molecular target: T1, Prostaglandin G/H synthase 2 (Oryctolagus cuniculus, UniProt O02768); assay: Inhibition of COX-2 in rabbit peripheral venous blood assessed as formation of 12-hydroxyheptadecatrienoic acid after 24 hrs in by HPLC presence of calcium ionophore […] and lipopolysaccharide; format: tissue-based
T1 sequence (O02768 whole entry): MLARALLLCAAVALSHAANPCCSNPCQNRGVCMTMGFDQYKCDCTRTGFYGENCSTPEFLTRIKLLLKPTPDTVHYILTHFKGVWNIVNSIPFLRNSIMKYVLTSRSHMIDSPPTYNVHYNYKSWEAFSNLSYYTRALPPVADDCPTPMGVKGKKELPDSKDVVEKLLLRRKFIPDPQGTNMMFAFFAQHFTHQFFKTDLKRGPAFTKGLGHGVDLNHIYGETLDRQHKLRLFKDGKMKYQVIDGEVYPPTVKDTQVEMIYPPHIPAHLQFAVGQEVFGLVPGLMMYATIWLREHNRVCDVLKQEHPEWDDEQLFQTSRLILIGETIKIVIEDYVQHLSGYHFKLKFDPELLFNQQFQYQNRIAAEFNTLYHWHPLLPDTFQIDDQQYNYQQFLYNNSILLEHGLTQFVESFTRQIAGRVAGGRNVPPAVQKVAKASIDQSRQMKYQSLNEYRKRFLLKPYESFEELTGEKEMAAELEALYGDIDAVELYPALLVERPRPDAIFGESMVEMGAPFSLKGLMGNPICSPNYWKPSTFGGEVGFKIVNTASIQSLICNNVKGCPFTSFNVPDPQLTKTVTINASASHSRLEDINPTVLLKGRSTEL

[4] = Inhibition of 5-LOX in rabbit peripheral venous blood assessed as formation of […] after 30 mins by HPLC; format: tissue-based, Oryctolagus cuniculus
Rattus norvegicus [5] = assay: Antiinflammatory activity in Wistar rat assessed as inhibition of carrageenan-induced paw edema at 11.48 mg/kg, po administered 1 hr before carrageenan challenge measured at 1 hr by plethysmometer; format: functional
[6] = molecular target: T2, Prostaglandin G/H synthase 1 (Oryctolagus cuniculus, UniProt O97554); assay: Inhibition of COX-1 in rabbit peripheral venous blood assessed as formation of 12-hydroxyheptadecatrienoic acid after 24 hrs by HPLC in presence of calcium ionophore A23187
T2 sequence (O97554 whole entry): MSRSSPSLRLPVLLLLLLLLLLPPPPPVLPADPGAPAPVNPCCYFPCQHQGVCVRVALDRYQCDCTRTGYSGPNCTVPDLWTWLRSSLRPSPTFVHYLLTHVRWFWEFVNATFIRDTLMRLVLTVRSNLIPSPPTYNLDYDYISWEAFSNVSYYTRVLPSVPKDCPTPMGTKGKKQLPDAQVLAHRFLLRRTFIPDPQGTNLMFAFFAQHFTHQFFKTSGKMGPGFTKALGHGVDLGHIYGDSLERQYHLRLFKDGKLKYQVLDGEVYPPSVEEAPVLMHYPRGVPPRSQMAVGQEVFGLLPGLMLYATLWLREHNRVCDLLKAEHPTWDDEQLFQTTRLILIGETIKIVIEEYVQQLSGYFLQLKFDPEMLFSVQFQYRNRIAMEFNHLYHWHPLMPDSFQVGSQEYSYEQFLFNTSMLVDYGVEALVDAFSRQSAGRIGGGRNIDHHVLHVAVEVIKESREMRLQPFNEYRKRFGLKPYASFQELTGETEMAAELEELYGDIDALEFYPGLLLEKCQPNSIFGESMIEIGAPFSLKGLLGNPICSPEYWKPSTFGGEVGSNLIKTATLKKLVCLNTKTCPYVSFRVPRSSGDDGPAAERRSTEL

Oryctolagus cuniculus = species on record: Oryctolagus cuniculus; assay: Selectivity ratio, IC50 for COX-1in rabbit peripheral venous blood to IC50 for COX-2 in rabbit peripheral venous blood; format: tissue-based
Rattus norvegicus [7] = assay: Antiinflammatory activity in Wistar rat assessed as inhibition of carrageenan-induced paw edema at 11.48 mg/kg, po administered 1 hr before carrageenan challenge measured at 3 hrs by plethysmometer; format: functional
Rattus norvegicus [8] = assay: Antiinflammatory activity in Wistar rat assessed as inhibition of carrageenan-induced paw edema at 11.48 mg/kg, po administered 1 hr before carrageenan challenge measured at 6 hrs by plethysmometer; format: functional
Rattus norvegicus [9] = assay: Ulcerogenic effect in Wistar rat assessed as gastric ulcer area at 10.44 mg/kg, po administered for 7 days by microscopy; format: toxicity, organism-based, Stomach; design: dose 10.44 mg/kg, route oral; conditions: in vivo, 168 h
Rattus norvegicus [10] = assay: Antiinflammatory activity in Wistar rat assessed as inhibition of carrageenan-induced paw edema at 10.44 mg/kg, po administered 1 hr before carrageenan challenge measured at 6 hrs by plethysmometer; format: functional
Rattus norvegicus [11] = assay: Antiinflammatory activity in Wistar rat assessed as inhibition of carrageenan-induced paw edema at 10.44 mg/kg, po administered 1 hr before carrageenan challenge measured at 1 hr by plethysmometer; format: functional
Rattus norvegicus [12] = assay: Antiinflammatory activity in Wistar rat assessed as inhibition of carrageenan-induced paw edema at 10.44 mg/kg, po administered 1 hr before carrageenan challenge measured at 3 hrs by plethysmometer; format: functional
Mus musculus [13] = assay: Analgesic activity in BALB/c mouse assessed as inhibition of acetic acid-induced writhing response for 15 mins at 20.88 mg/kg, po; format: functional; conditions: 0.25 h

pIC50 [3] | pIC50 [4] | pIC50 [6] | SMILES | Activity (Rattus norvegicus [1]) [mm2] | inhibition in vivo at 22.96 mg/kg (Mus musculus [2]) [%] | inhibition in vivo at 11.48 mg/kg (Rattus norvegicus [5]) [%] | Ratio IC50 (Oryctolagus cuniculus) | inhibition in vivo at 11.48 mg/kg (Rattus norvegicus [7]) [%] | inhibition in vivo at 11.48 mg/kg (Rattus norvegicus [8]) [%] | Activity (Rattus norvegicus [9]) [mm2] | inhibition in vivo at 10.44 mg/kg (Rattus norvegicus [10]) [%] | inhibition in vivo at 10.44 mg/kg (Rattus norvegicus [11]) [%] | inhibition in vivo at 10.44 mg/kg (Rattus norvegicus [12]) [%] | inhibition in vivo at 20.88 mg/kg (Mus musculus [13]) [%]
7.00 | 6.25 | 6.96 | CS(=O)(=O)c1ccc(/C=C2/C(=O)Nc3ccc(Br)cc32)cc1 | 0.44 | 82.8 | 33.3 | 1.1 | 47.2 | 29.4 |  |  |  |  | 
5.48 | 5.41 | 6.30 | CS(=O)(=O)c1ccc(/C=C2/C(=O)Nc3ccc([N+](=O)[O-])cc32)cc1 |  |  |  | 0.15 |  |  | 0.81 | 23.5 | 28.6 | 33.3 | 73.2

Source: ChEMBL document CHEMBL1287762, “Synthesis and biological evaluation of 3-[4-(amino/methylsulfonyl)phenyl]methylene-indolin-2-one derivatives as novel COX-1/2 and 5-LOX inhibitors” (Bioorg Med Chem Lett, 2010)
